The target in one assay is T1, (N66A)PD-1/PD-L1 complex (Homo sapiens, UniProt Q9NZQ7).
T1 construct: made in house; host or cells: E. coli BL21 (DE3)
As to the kind of experiment: w-AIDA-NMR on (N66A)PD-1/PD-L1 complex. The class given is binding.

For a further assay, the target named is T2, PD-1/PD-L1 complex (Homo sapiens, UniProt Q9NZQ7).
T2 construct: made in house; host or cells: E. coli BL21 (DE3)
As to conditions: ref [59]; cited from earlier work.

In the next assay the test system is effector T cells. As to conditions: T cells attenuated by soluble and membrane-bound PD-L1; ref [59]; cited from earlier work.
For the next assay, the target named is T3, MdmX (Homo sapiens, UniProt O15151).
T3 sequence (O15151 18-111): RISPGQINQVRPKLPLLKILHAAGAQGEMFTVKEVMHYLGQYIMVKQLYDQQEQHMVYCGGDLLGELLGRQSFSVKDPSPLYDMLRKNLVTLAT
As to the kind of experiment: Fluorescence polarization competition assay (displacement of P2 peptide), MdmX. The note with it: read-out: Ki towards MdmX; FP assay. On the technique in general: In fluorescence polarisation assays a small probe gives low polarisation when free and higher when bound to something large.

pKi: −log10 of the molar value.

T1 sequence (Q9NZQ7 18-134, stated change not applied, one chain of several): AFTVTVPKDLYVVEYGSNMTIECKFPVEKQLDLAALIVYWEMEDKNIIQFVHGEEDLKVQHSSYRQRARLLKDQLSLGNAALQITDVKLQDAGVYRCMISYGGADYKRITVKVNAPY
T2 sequence (Q9NZQ7 18-134, one chain of several): as the sequence (Q9NZQ7 18-134, stated change not applied, one chain of several) above

With `Cc1c(COc2cc(OCc3cccc(C#N)c3)c(CN3C[C@H](O)C[C@@H]3C(=O)O)cc2Cl)cccc1-c1ccc2c(c1)OCCO2` [BMS-1166], on (N66A)PD-1/PD-L1 complex ((N66A)PD-1/PD-L1 complex, molar ratio 1:1), the “Recovery of PD-1 signals in 1D 1H-NMR spectra” value is listed as “full recovery of the PD-1 signals”. Further, the “Dissociation of (N66A)PD-1/PD-L1 complex (recovery of 2D HMQC signals)” value on (N66A)PD-1/PD-L1 complex (equimolar amount of compound) is on record as “full recovery of 2D HMQC spectrum”. In addition, the “Dissociation of human PD-1/PD-L1 complex in vitro” value at PD-1/PD-L1 complex is “efficiently dissociates the human PD-1/PD-L1 complex in vitro”. In addition, the “Activation of effector T cells” value in the assay with effector T cells is recorded as “activates the effector T cells”.
For `CC(C)(C)NC(=O)C(c1c(C(=O)O)[nH]c2cc(Cl)ccc12)N(C=O)Cc1cc(F)cc(F)c1F` (centres unmarked) [compound 4], at MdmX, the pKi (in general, the Ki on a negative log10 scale, so that one unit is a factor of ten) was 4.57.

Values taken from PMC7412237, “Competition NMR for Detection of Hit/Lead Inhibitors of Protein–Protein Interactions” (Molecules, 2020).
